Data published in US6914045B2, “Glycopeptide antibiotics” (Wyeth Holdings Corporation, priority 2001, dated 2005).

Assays:
Assay in all cases: in vitro antibacterial evaluation, MIC by broth dilution
Assay type in all cases: cell-based
[1] = tested on: Enterococcus sp.; settings: broth dilution, 18 hours at 35° C.
In short: (§1)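 Test organisms, which included recent clinical isolates resistant to methicillin, penicillin and/or vancomycin, were inoculated at 5×10^5 CFU/mL into Muller-Hinton II […] containing antibiotic at 64-0.06 μg/mL. Minimum inhibitory concentrations were then read as the lowest level inhibiting growth.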

[2] = tested on: Staphylococcus sp.; settings: broth dilution, 18 hours at 35° C.
In short: as §1

[3] = tested on: Streptococcus sp.; settings: broth dilution, 18 hours at 35° C.
In short: as §1

[4] = tested on: Escherichia coli; settings: 18 hours at 35° C.

COc1ccc(COC2C(CO)OC(OC3C(CO)OC(Oc4ccc(CC5NC(=O)C(C(C)c6ccccc6)NC(=O)CNC(=O)C(CO)NC(=O)C(C(O)C6CNC(=N)N6C6OC(CO)C(O)C(O)C6O)NC(=O)C(C(O)C6CNC(=N)N6)NC5=O)cc4)C(O)C3O)C(O)C2O)cc1OCc1ccccc1 (stereo not shown) [Example 239a]
4 µg/mL: MIC Enterococcus faecium (GC 4557) [1] | MIC Enterococcus faecium (GC 4557) ([1]; strain GC 4557) | MIC Staphylococcus aureus (ATCC 29213) [2] | MIC Staphylococcus aureus (GC 1131) [2] | MIC Staphylococcus aureus (GC 3053) [2] | MIC Staphylococcus aureus (GC 4541) [2] | MIC Staphylococcus aureus (GC 4542) [2] | MIC Staphylococcus aureus (GC 4544) [2] | MIC Staphylococcus aureus (GC 4545) [2] | MIC Staphylococcus aureus (ATCC 29213) ([2]; strain ATCC 29213) | MIC Staphylococcus aureus (GC 1131) ([2]; strain GC 1131) | MIC Staphylococcus aureus (GC 3053) ([2]; strain GC 3053) | MIC Staphylococcus aureus (GC 4541) ([2]; strain GC 4541) | MIC Staphylococcus aureus (GC 4542) ([2]; strain GC 4542) | MIC Staphylococcus aureus (GC 4544) ([2]; strain GC 4544) | MIC Staphylococcus aureus (GC 4545) ([2]; strain GC 4545)
>64 µg/mL: MIC Escherichia coli (ATCC 25922) [4] | MIC Escherichia coli (GC 4559) [4]
1 µg/mL: MIC Coagulase Negative Staphylococcus (GC 4548) [2] | MIC Coagulase Negative Staphylococcus (GC 4548) ([2]; strain GC 4548) | MIC Streptococcus agalactiae (GC 4564) [3] | MIC Streptococcus agalactiae (GC 4564) ([3]; inoculum 5×10^5 CFU/mL, strain GC 4564)
<0.06 µg/mL: MIC Streptococcus pneumoniae (GC 1894) [3] | MIC Streptococcus pneumoniae (GC 1894) ([3]; inoculum 5×10^5 CFU/mL, strain GC 1894)
2 µg/mL: MIC Coagulase Negative Staphylococcus (GC 4547) [2] | MIC Coagulase Negative Staphylococcus (GC 4549) [2] | MIC Coagulase Negative Staphylococcus (GC 4551) [2] | MIC Coagulase Negative Staphylococcus (GC 6257) [2] | MIC Staphylococcus aureus (GC 3051) [2] | MIC Staphylococcus aureus-SMITH (GC 4543) [2] | MIC Staphylococcus haemolyticus (GC 4546) [2] | MIC Staphylococcus aureus (GC 3051) ([2]; strain GC 3051) | MIC Staphylococcus aureus-SMITH (GC 4543) ([2]; strain GC 4543) | MIC Staphylococcus haemolyticus (GC 4546) ([2]; strain GC 4546) | MIC Coagulase Negative Staphylococcus (GC 4547) ([2]; strain GC 4547) | MIC Coagulase Negative Staphylococcus (GC 4549) ([2]; strain GC 4549) | MIC Coagulase Negative Staphylococcus (GC 4551) ([2]; strain GC 4551) | MIC Coagulase Negative Staphylococcus (GC 6257) ([2]; strain GC 6257) | MIC Streptococcus pyogenes (GC 4563) [3] | MIC Streptococcus pyogenes (GC 4563) ([3]; inoculum 5×10^5 CFU/mL, strain GC 4563) | MIC Escherichia coli (GC 4560) [4]
0.25 µg/mL: MIC Streptococcus pneumoniae (ATCC 6301) [3] | MIC Streptococcus pneumoniae (GC 4565) [3] | MIC Streptococcus pneumoniae (ATCC 6301) ([3]; inoculum 5×10^5 CFU/mL, strain ATCC 6301) | MIC Streptococcus pneumoniae (GC 4565) ([3]; inoculum 5×10^5 CFU/mL, strain GC 4565)
16 µg/mL: MIC Enterococcus faecalis (GC 4554) [1] | MIC Enterococcus faecalis (GC 4554) ([1]; strain GC 4554)
8 µg/mL: MIC Enterococcus avium (GC 4558) [1] | MIC Enterococcus faecalis (ATCC 29212) [1] | MIC Enterococcus faecalis (GC 2242) [1] | MIC Enterococcus faecalis (GC 2691) [1] | MIC Enterococcus faecalis (GC 3059) [1] | MIC Enterococcus faecalis (GC 4552) [1] | MIC Enterococcus faecalis (GC 4553) [1] | MIC Enterococcus faecalis (GC 6189) [1] | MIC Enterococcus faecium (GC 2243) [1] | MIC Enterococcus faecium (GC 4556) [1] | MIC Enterococcus faecalis (ATCC 29212) ([1]; strain ATCC 29212) | MIC Enterococcus faecium (GC 2243) ([1]; strain GC 2243) | MIC Enterococcus faecalis (GC 4552) ([1]; strain GC 4552) | MIC Enterococcus faecalis (GC 4553) ([1]; strain GC 4553) | MIC Enterococcus faecium (GC 4556) ([1]; strain GC 4556) | MIC Enterococcus avium (GC 4558) ([1]; strain GC 4558) | MIC Enterococcus faecalis (GC 6189) ([1]; strain GC 6189) | MIC Enterococcus faecalis (GC 2242) ([1]; inoculum 5×10^5 CFU/mL, strain GC 2242) | MIC Enterococcus faecalis (GC 2691) ([1]; inoculum 5×10^5 CFU/mL, strain GC 2691) | MIC Enterococcus faecalis (GC 3059) ([1]; inoculum 5×10^5 CFU/mL, strain GC 3059)
